In US10173971B2, “Picolinamides with fungicidal activity” (DOW AGROSCIENCES LLC, priority 2014, dated 2019):
Where two headings read alike, the source gives them in different places.

Experiments:
Puccinia triticina = test: Fungicidal activity: wheat brown rust (PUCCRT), wheat seedlings, booth sprayer to run-off or track spray; type: in vivo; details: for pest or weed control at 121.5 g/ha: Low-Volume Cereal Activity at 121.5 g/H; for pest or weed control at 100 ppm: High-Volume Cereal Activity at 100 ppm
Protocol: All fungicides were evaluated using the aforementioned method for their activity vs. all target diseases. Wheat leaf blotch and brown rust activity were also evaluated using track spray applications, in which case the fungicides were formulated as EC formulations, containing 0.1% Trycol 5941 in the spray solutions. Wheat plants (variety Yuma) were grown from seed in a greenhouse in 50% mineral soil/50% soil-less Metro mix until the first leaf was fully emerged, with 7-10 seedlings per pot. These plants were inoculated with an aqueous spore suspension of Puccinia triticina either prior to or after fungicide treatments. […] The plants were then transferred to a greenhouse set at 24° C. for disease to develop. Fungicide formulation, application and disease assessment followed the procedures as described in the Example A.

Zymoseptoria tritici = test: Fungicidal activity: leaf blotch of wheat (SEPTTR), wheat seedlings, booth sprayer to run-off or track spray; type: in vivo; details: for pest or weed control at 121.5 g/ha: Low-Volume Cereal Activity at 121.5 g/H; for pest or weed control at 100 ppm: High-Volume Cereal Activity at 100 ppm
Protocol: All fungicides were evaluated using the aforementioned method for their activity vs. all target diseases. Wheat leaf blotch and brown rust activity were also evaluated using track spray applications, in which case the fungicides were formulated as EC formulations, containing 0.1% Trycol 5941 in the spray solutions. Wheat plants (variety Yuma) were grown from seed in a greenhouse in 50% mineral soil/50% soil-less Metro mix until the first leaf was fully emerged, with 7-10 seedlings per pot. These plants were inoculated with an aqueous spore suspension of Zymoseptoria tritici either prior to or after fungicide treatments. After inoculation the plants were kept in 100% relative humidity (one day in a dark dew chamber followed by two to three days in a lighted dew chamber at 20° C.) to permit spores to germinate and infect the leaf. The plants were then transferred to a greenhouse set at 20° C. for disease to develop. When disease symptoms were fully expressed on the 1st leaves of untreated plants, infection levels were assessed on a scale of 0 to 100 percent disease severity. Percent disease control was calculated using the ratio of disease severity on treated plants relative to untreated plants.

[1] = 24 h, 1 Day Protectant, read-out: PUCCRT 1DP
[2] = 72 h, 3 Day Curative, read-out: PUCCRT 3DC
[3] = 24 h, 1 Day Protectant, read-out: SEPTTR 1DP
[4] = 72 h, 3 Day Curative, read-out: SEPTTR 3DC
[5] = 3DC (Day Curative), read-out: PUCCRT 3DC
[6] = 3DC (Day Curative), read-out: SEPTTR 3DC

COc1ccnc(C(=O)N[C@@H](C)C(=O)O[C@@H](C)[C@H](Cc2ccc3ccccc3c2)c2ccccc2)c1OCOC(C)=O [compound 225] was tested, and the pest or weed control at 121.5 g/ha (Puccinia triticina; [1]) was 0 to 80%, the pest or weed control at 121.5 g/ha (Puccinia triticina; [2]) was 0 to 80% and the pest or weed control at 121.5 g/ha (Zymoseptoria tritici; [3]) was 0 to 80%. The pest or weed control at 121.5 g/ha (Zymoseptoria tritici; [4]) was 0 to 80%.

With COc1ccnc(C(=O)N[C@@H](C)C(=O)O[C@@H](C)[C@H](Cc2ccc3ccccc3c2)c2ccccc2)c1OCOC(=O)C(C)C [compound 226] the pest or weed control at 121.5 g/ha (Puccinia triticina; [1]) was 0 to 80%, the pest or weed control at 121.5 g/ha (Zymoseptoria tritici; [3]) was 0 to 80% and the pest or weed control at 121.5 g/ha (Zymoseptoria tritici; [4]) was 0 to 80%.

COc1ccc(C[C@H](COc2ccc(F)cc2F)[C@H](C)OC(=O)[C@H](C)NC(=O)c2nccc(OC)c2O)cc1 [compound 160] gave a pest or weed control at 100 ppm (Puccinia triticina; [1]) of 80 to 100% and a pest or weed control at 100 ppm (Zymoseptoria tritici; [3]) of 0 to 80%.

With CC[C@H](NC(=O)c1nccc(OC)c1OC(C)=O)C(=O)OC(C)C(Cc1ccccc1)Cc1ccccc1 (stereo partly drawn) [compound 262] the pest or weed control at 121.5 g/ha (Puccinia triticina; [1]) was 80 to 100%, the pest or weed control at 121.5 g/ha (Puccinia triticina; [2]) was 0 to 80% and the pest or weed control at 121.5 g/ha (Zymoseptoria tritici; [3]) was 0 to 80%.

Work on COc1ccnc(C(=O)N[C@@H](C)C(=O)OC(C)C(Cc2ccccc2)Cc2ccccc2)c1OCOC(C)=O (stereo partly drawn) [compound 265] yielded a pest or weed control at 121.5 g/ha (Puccinia triticina; [1]) of 80 to 100%, a pest or weed control at 121.5 g/ha (Puccinia triticina; [2]) of 0 to 80% and a pest or weed control at 121.5 g/ha (Zymoseptoria tritici; [3]) of 80 to 100%. For the same compound, the pest or weed control at 121.5 g/ha (Zymoseptoria tritici; [4]) was 0 to 80%.

COc1cccc(CC(Cc2cccc(OC)c2)[C@H](C)OC(=O)[C@H](C)NC(=O)c2nccc(OC)c2O)c1 [compound 152] was tested, and the pest or weed control at 100 ppm (Puccinia triticina; [1]) was 80 to 100% and the pest or weed control at 100 ppm (Puccinia triticina; [5]) was 0 to 80%.

For COc1ccnc(C(=O)N[C@@H](C)C(=O)O[C@@H](C)[C@@H](COCc2ccccc2)Cc2ccc(F)cc2)c1O [compound 131], the pest or weed control at 100 ppm (Puccinia triticina; [1]) was 80 to 100%, the pest or weed control at 100 ppm (Puccinia triticina; [5]) was 0 to 80% and the pest or weed control at 100 ppm (Zymoseptoria tritici; [3]) was 80 to 100%. The pest or weed control at 100 ppm (Zymoseptoria tritici; [6]) was 0 to 80%.

Work on COc1ccnc(C(=O)N[C@@H](C)C(=O)O[C@@H](C)[C@@H](COc2ccc(Cl)cc2Cl)Cc2ccccc2)c1O [compound 126] yielded a pest or weed control at 100 ppm (Puccinia triticina; [1]) of 0 to 80% and a pest or weed control at 100 ppm (Zymoseptoria tritici; [3]) of 0 to 80%.

With C=C[C@H](Cc1ccc(C(F)(F)F)cc1)[C@@H](Cc1ccc(F)cc1)[C@H](C)OC(=O)[C@H](COC)NC(=O)c1nccc(OC)c1O [compound 107] the pest or weed control at 100 ppm (Puccinia triticina; [1]) was 0 to 80%.

Compound COc1ccnc(C(=O)N[C@@H](C)C(=O)O[C@@H](C)[C@H](Cc2ccccc2)C(C)C)c1O [compound 122] has a pest or weed control at 100 ppm (Puccinia triticina; [1]) of 0 to 80%.

Compound CC[C@H](Cc1ccc(C(F)(F)F)cc1)[C@@H](Cc1ccc(F)cc1)[C@H](C)OC(=O)[C@H](C)NC(=O)c1nccc(OC)c1OC(C)=O [compound 182] has a pest or weed control at 121.5 g/ha (Puccinia triticina; [1]) of 0 to 80% and a pest or weed control at 121.5 g/ha (Puccinia triticina; [2]) of 0 to 80%.

CC[C@H](Cc1ccc(C(F)(F)F)cc1)[C@@H](Cc1ccc(F)cc1)[C@H](C)OC(=O)CNC(=O)c1nccc(OC)c1OC(C)=O [compound 183] showed a pest or weed control at 121.5 g/ha (Puccinia triticina; [1]) of 0 to 80%.

CCCOC[C@@H](Cc1ccccc1)[C@H](C)OC(=O)CNC(=O)c1nccc(OC)c1OC(C)=O [compound 176] was tested, and the pest or weed control at 121.5 g/ha (Puccinia triticina; [1]) was 80 to 100% and the pest or weed control at 121.5 g/ha (Puccinia triticina; [2]) was 0 to 80%.

Work on COc1ccnc(C(=O)N[C@@H](C)C(=O)O[C@@H](C)[C@H](Cc2ccccc2)c2ccccc2)c1O [compound 119] yielded a pest or weed control at 100 ppm (Zymoseptoria tritici; [6]) of 0 to 80%.

For C=C[C@H](Cc1ccc(C(F)(F)F)cc1)[C@@H](Cc1ccc(F)cc1)[C@H](C)OC(=O)CNC(=O)c1nccc(OC)c1O [compound 109], the pest or weed control at 100 ppm (Puccinia triticina; [1]) was 0 to 80%.

COc1ccnc(C(=O)N[C@@H](C)C(=O)O[C@@H](C)[C@H](Cc2ccc(Cl)c(Cl)c2)c2ccccc2)c1OC(=O)C(C)C [compound 217] showed a pest or weed control at 121.5 g/ha (Zymoseptoria tritici; [3]) of 0 to 80% and a pest or weed control at 121.5 g/ha (Zymoseptoria tritici; [4]) of 0 to 80%.

CC[C@H](Cc1ccc(C(F)(F)F)cc1)[C@@H](Cc1ccc(F)cc1)[C@H](C)OC(=O)[C@H](COC)NC(=O)c1nccc(OC)c1O [compound 110] was tested, and the pest or weed control at 100 ppm (Puccinia triticina; [1]) was 80 to 100%.
